{"source": "paper PMC12206033", "about": "“Selective inhibition of TRPV3 channel by natural rosmarinic acid and its analogs for alleviation of skin lesions through downregulation of NF-κB pathway” (The Journal of Biological Chemistry, 2025)", "key": {"hTRPV4": {"target": "T1, hTRPV4 (Homo sapiens, UniProt Q9HBA0)", "T1 construct": "expressed in transfected cells; host or cells: HEK293T", "experiment": "whole-cell patch-clamp of hTRPV4 currents activated by GSK101", "assay_type": "cell-based", "conditions": "ROSA 50 μM; agonist GSK101 100 nM; read-out: inhibition of TRPV4 currents", "method": "(§1) HEK293T cell line was obtained from the Cell Resource Center, Peking Union Medical College. HEK293T cells were maintained in Dulbecco’s modified Eagle’s medium (DMEM, Gibco) supplemented with 10% fetal bovine serum at 37 °C with 5% CO2. […] The next day, determine the plasmid transfection status by observing green fluorescence based on expression of enhanced GFP as an indicator. […] When conducting experiments on HEK293T cells transfected with G573S point mutant TRPV3 plasmid, we replaced culture medium with or without compounds after 4 h of transfection and then observed green fluorescence of HEK293T cell after 10 h. As for the relative fluorescence intensity, we convert the image to 8 bit grayscale using ImageJ (Https://imagej.net/software/fiji/downloads) and set an appropriate threshold value to reduce background noise and enhance the image contrast.\n(§2) All patch-clamp recordings were conducted 16 to 24 h after transfection using an EPC10 amplifier powered by PatchMaster software (HEKA) (https://www.heka.com/downloads/downloads_main.html#down_patchmaster) at room temperature. […] Currents were recorded at a potential ramp from −100 mV to +100 mV for 1000 ms with 1000-ms intervals (for whole-cell recordings) or a persistent potential of −60 mV (inside-out patch recordings). […]"}, "hTRPA1": {"target": "T2, hTRPA1 (Homo sapiens, UniProt O75762)", "T2 construct": "expressed in transfected cells; host or cells: HEK293T", "experiment": "whole-cell patch-clamp of hTRPA1 currents activated by allyl isothiocyanate", "assay_type": "cell-based", "conditions": "ROSA 50 μM; agonist allyl isothiocyanate 300 μM; read-out: inhibition of TRPA1 currents", "method": "as §1, §2"}, "TRPV3 T665A": {"target": "T3, TRPV3 T665A (Homo sapiens, UniProt Q8NET8, T665A)", "T3 construct": "expressed in transfected cells; host or cells: HEK293T", "T3 sequence (Q8NET8 1-790 T665A)": "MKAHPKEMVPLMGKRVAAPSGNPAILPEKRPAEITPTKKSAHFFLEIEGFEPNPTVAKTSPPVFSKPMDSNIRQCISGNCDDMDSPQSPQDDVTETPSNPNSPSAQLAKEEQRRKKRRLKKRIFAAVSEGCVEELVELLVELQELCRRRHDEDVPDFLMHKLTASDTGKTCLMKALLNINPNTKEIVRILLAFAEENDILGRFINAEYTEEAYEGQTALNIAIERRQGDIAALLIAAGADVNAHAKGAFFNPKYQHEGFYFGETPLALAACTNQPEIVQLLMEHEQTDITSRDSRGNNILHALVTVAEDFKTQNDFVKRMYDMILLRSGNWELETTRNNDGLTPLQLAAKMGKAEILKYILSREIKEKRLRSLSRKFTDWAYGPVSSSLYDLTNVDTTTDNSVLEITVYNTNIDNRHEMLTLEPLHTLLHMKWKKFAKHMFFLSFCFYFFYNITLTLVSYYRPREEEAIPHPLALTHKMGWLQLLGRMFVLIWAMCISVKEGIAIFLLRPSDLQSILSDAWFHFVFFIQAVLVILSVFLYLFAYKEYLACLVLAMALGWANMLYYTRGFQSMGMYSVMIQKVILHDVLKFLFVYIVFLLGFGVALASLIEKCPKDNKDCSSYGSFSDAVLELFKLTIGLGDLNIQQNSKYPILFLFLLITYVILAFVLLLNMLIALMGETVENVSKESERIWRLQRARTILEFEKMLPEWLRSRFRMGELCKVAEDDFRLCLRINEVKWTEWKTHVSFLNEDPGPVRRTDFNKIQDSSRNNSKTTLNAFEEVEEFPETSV", "experiment": "single-channel inside-out patch recordings of TRPV3 T665A mutant", "assay_type": "cell-based", "conditions": "ROSA 100 μM co-applied with 2-APB 50 μM; n = 4", "method": "as §1, §2"}, "[1]": {"test_system": "TRPV3, IL-6, TNF-α, and p-P65 protein expressions", "experiment": "Western blot of TRPV3 and NF-κB pathway proteins in mouse ear tissues", "assay_type": "in vivo", "conditions": "topical ROSA 0.1, 1 and 10 mM; mouse ear tissues; day 5", "method": "Skin sensitizer Car was dissolved in saline solution containing 30% ethanol. The dorsal skin or ear of mice was swabbed with 3% Car for four consecutive days. To investigate the effects of ROSA, it was diluted to concentration of 0.1/1/10 mM with saline and topically applied on the ear and dorsal skin once a day for 4 days. The control group only received swabs with the solvent.\nSkin or ear skin tissues were homogenized in radioimmunoprecipitation assay buffer (Thermo Fisher Scientific) containing protease inhibitors at a ratio of 100:1 per 10 mg tissue and centrifuged at 15,000 rpm for 15 min. The protein concentration was quantified using a bicinchoninic acid kit (Thermo Fisher Scientific), followed by SDS-PAGE for Western blot analysis. Protein transfer was performed at 150 mA for 90 min, and the transferred membranes (Millipore) were incubated with primary antibodies (TRPV3 antibody, 1:1000, TNF-α antibody, 1:1000, IL-6 antibody, 1:2500, P65 antibody, 1:1000 and p-P65 antibody, 1:1000) in 5% skim milk (Becton, Dickinson and Company). […] Images were quantified using the Image Lab software (https://www.bio-rad.com/zh-cn/product/image-lab-software?ID=KRE6P5E8Z)."}}}
{"smiles": "O=C(/C=C/c1ccc(O)c(O)c1)O[C@H](Cc1ccc(O)c(O)c1)C(=O)O", "note": "[ROSA, rosmarinic acid]", "values": [{"measurement": "inhibition at 50 µM", "setting": "hTRPV4", "result": "2 ± 7.3", "unit": "%"}, {"measurement": "inhibition at 50 µM", "setting": "hTRPA1", "result": "4.5 ± 3.6", "unit": "%"}, {"measurement": "single-channel open probability, T665A mutant", "setting": "TRPV3 T665A", "result": 0.69}, {"measurement": "protein expressions of TRPV3, IL-6, TNF-α, and p-P65 induced by Car", "setting": "[1]", "result": "downregulated the upregulation"}]}
